# From patent US20240254103A9, “NOVEL PYRIMIDINE DERIVATIVE, AND COMPOSITION FOR PREVENTING OR TREATING NEURODEGENERATIVE DISEASES AND CANCER, COMPRISING SAME” (WHAN IN PHARMACEUTICAL CO., LTD., priority 2020, published 2024)
# Experiments:
# mutant LRRK2 (G2019S) = target: T1, mutant LRRK2 (G2019S) (Homo sapiens, UniProt Q5S007, G2019S); assay: Inhibitory activity against LRRK2: competition binding to ligand-affinity beads, DNA-tagged kinase quantitated by qPCR; details: 100 nM compound; % of ctrl; read-out: Remaining kinase activity(%) at 100 nM LRRK2(G2019Smutant)
# T1 construct: DNA tag for qPCR detection (not a peptide; the protein part that carries it is not described); made in house; host or cells: HEK 293 cells (the same paragraph also describes T7 phage grown in E. coli BL21)
# Method in brief: (§1)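 Human LRRK2 H970–E2527, wild type or G2019S, was expressed as DNA-tagged kinase (T7 phage in E. coli or HEK293) and competed for 1 h against a biotinylated ligand on streptavidin beads. Bound kinase was eluted with 0.5 µM free ligand and quantified by qPCR. Values are % of control at 100 nM (both forms) and at 10 and 50 nM (wild type).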
# wild-type LRRK2 = target: T2, wild-type LRRK2 (Homo sapiens, UniProt Q5S007); assay: as above; details: % of ctrl; for remaining binding at 0.1 µM: 100 nM compound, read-out: Remaining kinase activity(%) at 100 nM LRRK2(WT); for remaining binding at 0.01 µM: 10 nM compound, read-out: LRRK2(WT) Remaining kinase activity(%) at 10 nM; for remaining binding at 0.05 µM: 50 nM compound, read-out: LRRK2(WT) Remaining kinase activity(%) at 50 nM
# T2 construct: DNA tag for qPCR detection (not a peptide; the protein part that carries it is not described); made in house; host or cells: HEK 293 cells (the same paragraph also describes T7 phage grown in E. coli BL21)
# Method in brief: as §1
# T2 sequence (Q5S007 970-2527): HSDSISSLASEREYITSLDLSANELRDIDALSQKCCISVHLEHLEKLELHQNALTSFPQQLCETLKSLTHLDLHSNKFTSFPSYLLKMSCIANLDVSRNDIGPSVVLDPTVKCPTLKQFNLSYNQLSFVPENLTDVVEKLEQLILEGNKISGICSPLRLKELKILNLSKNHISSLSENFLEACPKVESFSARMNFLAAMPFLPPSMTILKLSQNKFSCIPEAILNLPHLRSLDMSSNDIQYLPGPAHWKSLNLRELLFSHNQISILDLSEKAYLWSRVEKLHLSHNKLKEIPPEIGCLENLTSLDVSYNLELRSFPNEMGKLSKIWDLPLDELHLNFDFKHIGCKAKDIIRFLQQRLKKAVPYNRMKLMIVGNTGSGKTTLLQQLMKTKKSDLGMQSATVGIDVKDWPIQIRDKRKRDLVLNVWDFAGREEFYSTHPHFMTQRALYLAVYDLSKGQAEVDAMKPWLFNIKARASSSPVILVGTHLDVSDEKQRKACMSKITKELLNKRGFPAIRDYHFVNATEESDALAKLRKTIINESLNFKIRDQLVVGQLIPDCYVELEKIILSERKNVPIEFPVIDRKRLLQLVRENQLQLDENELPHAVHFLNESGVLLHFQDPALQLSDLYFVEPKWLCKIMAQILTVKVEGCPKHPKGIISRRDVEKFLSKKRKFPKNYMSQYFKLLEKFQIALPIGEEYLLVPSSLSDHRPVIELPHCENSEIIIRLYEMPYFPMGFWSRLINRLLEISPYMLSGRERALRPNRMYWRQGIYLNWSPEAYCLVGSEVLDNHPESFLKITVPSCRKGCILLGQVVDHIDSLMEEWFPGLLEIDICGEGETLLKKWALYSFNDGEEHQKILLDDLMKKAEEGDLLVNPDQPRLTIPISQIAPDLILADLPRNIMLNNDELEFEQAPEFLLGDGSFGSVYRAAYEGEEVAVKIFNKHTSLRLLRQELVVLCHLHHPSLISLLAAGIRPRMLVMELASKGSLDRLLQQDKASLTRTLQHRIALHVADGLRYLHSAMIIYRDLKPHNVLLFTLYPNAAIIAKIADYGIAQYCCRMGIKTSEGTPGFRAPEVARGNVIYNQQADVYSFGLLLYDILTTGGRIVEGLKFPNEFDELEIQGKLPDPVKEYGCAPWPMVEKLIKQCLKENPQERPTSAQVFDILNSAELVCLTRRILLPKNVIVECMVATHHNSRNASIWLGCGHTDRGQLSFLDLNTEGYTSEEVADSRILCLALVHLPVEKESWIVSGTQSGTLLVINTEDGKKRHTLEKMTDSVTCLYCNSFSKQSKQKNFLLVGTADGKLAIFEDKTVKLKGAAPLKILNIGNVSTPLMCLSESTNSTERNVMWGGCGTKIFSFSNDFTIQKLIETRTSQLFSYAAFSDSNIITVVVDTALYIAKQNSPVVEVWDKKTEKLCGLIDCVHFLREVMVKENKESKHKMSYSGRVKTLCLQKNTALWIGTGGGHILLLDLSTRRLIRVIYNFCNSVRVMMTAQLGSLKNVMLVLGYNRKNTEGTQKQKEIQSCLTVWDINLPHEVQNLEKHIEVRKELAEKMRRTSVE
# T1 sequence (Q5S007 970-2527 G2019S): as the sequence (Q5S007 970-2527) above, with G1050S counted along it
remaining binding at 0.1 µM (mutant LRRK2 (G2019S)) [%],remaining binding at 0.1 µM (wild-type LRRK2) [%],remaining binding at 0.01 µM (wild-type LRRK2) [%],remaining binding at 0.05 µM (wild-type LRRK2) [%],SMILES
< 50,< 30,,,"COc1cc(C(=O)N2CCOC(C)(C)C2)ccc1Nc1ncc(Cl)c(-c2cnn(C)c2)n1 [Compound 42, (4-((5-chloro-4-(1-methyl-1H-pyrazol-4-yl)pyrimidin-2-yl)amino)-3-methoxyphenyl)(2,2-dimethylmorpholino)methanone]"
< 10,< 10,,,"COc1cc(C(=O)N2CCOCC2)c(F)cc1Nc1ncc(C(F)(F)F)c(-c2cnn(C)c2)n1 [Compound 46, (2-fluoro-5-methoxy-4-((4-(1-methyl-1H-pyrazol-4-yl)-5-(trifluoromethyl)pyrimidin-2-yl)amino)phenyl)(morpholino)methanone]"
< 50,< 30,,,"COc1cc(C(=O)NC(C)(C)C)ccc1Nc1ncc(Cl)c(-c2cnn(C)c2)n1 [Compound 25, N-(tert-butyl)-4-((5-chloro-4-(1-methyl-1H-pyrazol-4-yl)pyrimidin-2-yl)amino)-3-methoxybenzamide]"
< 10,< 10,,,"CCn1cc(-c2nc(Nc3ccc(C(=O)N4CCOCC4)cc3OC)ncc2Cl)cn1 [Compound 56, (4-((5-chloro-4-(1-ethyl-1H-pyrazol-4-yl)pyrimidin-2-yl)amino)-3-methoxyphenyl)(morpholino)methanone]"
< 10,< 10,,,"COc1cc(C(=O)N2CCOCC2)ccc1Nc1ncc(Cl)c(-c2cnn(C(C)(C)C)c2)n1 [Compound 59, (4-((4-(1-(tert-butyl)-1H-pyrazol-4-yl)-5-chloropyrimidin-2-yl)amino)-3-methoxyphenyl)(morpholino)methanone]"
< 50,< 50,,,"COc1cc(C(=O)NCC(C)(C)O)ccc1Nc1ncc(Cl)c(-c2cnn(C)c2)n1 [Compound 26, 4-((5-chloro-4-(1-methyl-1H-pyrazol-4-yl)pyrimidin-2-yl)amino)-N-(2-hydroxy-2-methylpropyl)-3-methoxybenzamide]"
< 30,< 50,,,"COc1cc(C(=O)c2ccncc2)ccc1Nc1ncc(Cl)c(-c2cnn(C(C)C)c2)n1 [Compound 54, (4-((5-chloro-4-(1-isopropyl-1H-pyrazol-4-yl)pyrimidin-2-yl)amino)-3-methoxyphenyl)(pyridin-4-yl)methanone]"
< 10,< 10,,,"CCCn1cc(-c2nc(Nc3ccc(C(=O)N4CCOCC4)cc3OC)ncc2Cl)cn1 [Compound 57, (4-((5-chloro-4-(1-propyl-1H-pyrazol-4-yl)pyrimidin-2-yl)amino)-3-methoxyphenyl)(morpholino)methanone]"
< 30,< 30,,,"COc1cc(C(=O)N2CCN(C(C)C)CC2)ccc1Nc1ncc(C(F)(F)F)c(-c2cnn(C)c2)n1 [Compound 45, (4-isopropylpiperazin-1-yl)(3-methoxy-4-((4-(1-methyl-1H-pyrazol-4-yl)-5-(trifluoromethyl)pyrimidin-2-yl)amino)phenyl)methanone]"
< 50,< 30,,,"COc1cc(C(=O)NC(C)(C)CO)ccc1Nc1ncc(Cl)c(-c2cnn(C)c2)n1 [Compound 24, 4-((5-chloro-4-(1-methyl-1H-pyrazol-4-yl)pyrimidin-2-yl)amino)-N-(1-hydroxy-2-methylpropan-2-yl)-3-methoxybenzamide]"
< 30,< 10,,,"COc1cc(C(=O)N2CCN(C(C)=O)CC2)ccc1Nc1ncc(Cl)c(-c2cnn(C)c2)n1 [Compound 44, 1-(4-(4-((5-chloro-4-(1-methyl-1H-pyrazol-4-yl)pyrimidin-2-yl)amino)-3-methoxybenzoyl)piperazin-1-yl)ethan-1-one]"
< 30,< 10,,,"COc1cc(C(=O)N2CC(N3CCOCC3)C2)ccc1Nc1ncc(Cl)c(-c2cnn(C)c2)n1 [Compound 43, (4-((5-chloro-4-(1-methyl-1H-pyrazol-4-yl)pyrimidin-2-yl)amino)-3-methoxyphenyl)(3-morpholinoazetidin-1-yl)methanone]"
,,< 50,< 10,"COc1cc(C(=O)N2CCC(S(C)(=O)=O)CC2)ccc1Nc1ncc(Cl)c(-c2cnn(C(C)C)c2)n1 [Compound 79, (4-((5-chloro-4-(1-isopropyl-1H-pyrazol-4-yl)pyrimidin-2-yl)amino)-3-methoxyphenyl)(4-(methylsulfonyl)piperidin-1-yl)methanone]"
,,≥ 50,< 50,"COC(=O)[C@@H]1CCCN1C(=O)c1ccc(Nc2ncc(Cl)c(-c3cnn(C(C)C)c3)n2)c(OC)c1 [Compound 200, methyl (4-((5-chloro-4-(1-isopropyl-1H-pyrazol-4-yl)pyrimidin-2-yl)amino)-3-methoxybenzoyl)-L-prolinate]"
,,≥ 50,< 50,"COc1cc(C(=O)Nc2cccc(NS(C)(=O)=O)c2)ccc1Nc1ncc(Cl)c(-c2cnn(C(C)C)c2)n1 [Compound 190, 4-((5-chloro-4-(1-isopropyl-1H-pyrazol-4-yl)pyrimidin-2-yl)amino)-3-methoxy-N-(3-(methylsulfonamido)phenyl)benzamide]"
,,≥ 50,< 50,"COc1cc(C(=O)NCc2ccc(C#N)cc2)ccc1Nc1ncc(Cl)c(-c2cnn(C(C)C)c2)n1 [Compound 128, 4-((5-chloro-4-(1-isopropyl-1H-pyrazol-4-yl)pyrimidin-2-yl)amino)-N-(4-cyanobenzyl)-3-methoxybenzamide]"

# Second part, the compound before the results:
SMILES,remaining binding at 0.1 µM (mutant LRRK2 (G2019S)) [%],remaining binding at 0.1 µM (wild-type LRRK2) [%],remaining binding at 0.01 µM (wild-type LRRK2) [%],remaining binding at 0.05 µM (wild-type LRRK2) [%]
"COc1cc(C(=O)N2CCOCC2)ccc1Nc1ncc(Cl)c(-c2cnn(C3CCOCC3)c2)n1 [Compound 20, (4-((5-chloro-4-(1-(tetrahydro-2H-pyran-4-yl)-1H-pyrazol-4-yl)pyrimidin-2-yl)amino)-3-methoxyphenyl)(morpholino)methanone]",< 10,< 10,,
"COc1cc(C(=O)N2CCC(N3CCOCC3)CC2)ccc1Nc1ncc(Cl)c(-c2cnn(C)c2)n1 [Compound 2, (4-((5-chloro-4-(1-methyl-1H-pyrazol-4-yl)pyrimidin-2-yl)amino)-3-methoxyphenyl) (4-morpholinopiperidin-1-yl)methanone]",< 10,< 10,,
"COc1cc(C(=O)N2CCOCC2)ccc1Nc1ncc(Cl)c(-c2cn[nH]c2)n1 [Compound 18, (4-((5-chloro-4-(1H-pyrazol-4-yl)pyrimidin-2-yl)amino)-3-methoxyphenyl)(morpholino)methanone]",< 30,< 30,,
"COc1cc(C(=O)N2CCOCC2)ccc1Nc1ncc(Cl)c(-c2cnn(C(C)CC#N)c2)n1 (stereo not drawn) [Compound 7, 3-(4-(5-chloro-2-((2-methoxy-4-(morpholine-4-carbonyl)phenyl)amino)pyrimidin-4-yl)-1H-pyrazol-1-yl)butanenitrile]",< 10,< 10,,
"COc1cc(C(=O)N2CCCC2)ccc1Nc1ncc(Cl)c(-c2cnn(C)c2)n1 [Compound 22, (4-((5-chloro-4-(1-methyl-1H-pyrazol-4-yl)pyrimidin-2-yl)amino)-3-methoxyphenyl)(pyrrolidin-1-yl)methanone]",< 50,< 30,,
"COc1cc(C(=O)N2CCOCC2)ccc1Nc1ncc(Cl)c(-c2cnn(S(C)(=O)=O)c2)n1 [Compound 10, (4-((5-chloro-4-(1-(methylsulfonyl)-1H-pyrazol-4-yl)pyrimidin-2-yl)amino)-3-methoxyphenyl)(morpholino)methanone]",< 10,< 30,,
"COc1cc(C(=O)N2CCC(N3CCN(C)CC3)CC2)ccc1Nc1ncc(Cl)c(-c2cnn(C)c2)n1 [Compound 19, (4-((5-chloro-4-(1-methyl-1H-pyrazol-4-yl)pyrimidin-2-yl)amino)-3-methoxyphenyl)(4-(4-methylpiperazin-1-yl)piperidin-1-yl)methanone]",< 10,< 10,,
"CCN(CCOC)C(=O)c1ccc(Nc2ncc(Cl)c(-c3cnn(C)c3)n2)c(OC)c1 [Compound 23, 4-((5-chloro-4-(1-methyl-1H-pyrazol-4-yl)pyrimidin-2-yl)amino)-N-ethyl-3-methoxy-N-(2-methoxyethyl)benzamide]",< 50,< 50,,
"COc1cc(C(=O)N2CCOCC2)ccc1Nc1ncc(Cl)c(-c2cccnc2)n1 [Comparative Compound 2, (4-((5-chloro-4-(pyridin-3-yl)pyrimidin-2-yl)amino)-3-methoxyphenyl) (morpholino)methanone, reference compound]",≥ 50,≥ 50,,
"COc1cc(C(=O)N2CCOCC2)ccc1Nc1ncc(Cl)c(-c2cnn(C)c2)n1 [Compound 1, (4-((5-chloro-4-(1-methyl-1H-pyrazol-4-yl)pyrimidin-2-yl)amino)-3-methoxyphenyl)(morpholino)methanone]",< 30,< 30,,
"COc1cc(C(=O)N2CCOCC2)ccc1Nc1ncc(Cl)c(-c2cccc([N+](=O)[O-])c2)n1 [Comparative Compound 3, (4-((5-chloro-4-(3-nitrophenyl)pyrimidin-2-yl)amino) -3-methoxyphenyl)(morpholino)methanone, reference compound]",≥ 50,≥ 50,,
